In US20230093861A1, “RAPAMYCIN ANALOGS AS MTOR INHIBITORS” (Revolution Medicines, Inc., priority 2017, published 2023):
Read-outs that look alike come from different tables or passages of the source.

Columns and labels:
P-Akt (S473) = assay: Cell based AlphaLISA assay, inhibition of P-Akt (S473) (mTORC2 substrate phosphorylation) in MDA-MB-468 cells; settings: Homo sapiens, AlphaLISA, two to four hours at 37° C., read-out: pIC50 for Inhibition of mTORC1 and mTORC2 Substrate Phosphorylation, p-AKT 1/2/3 -(S473) (converted)
Experimental: (§1) Cell Based AlphaLISA Assays for Determining IC50 for Inhibition of P-Akt (S473), P-4E-BP1 (T37/46), and P-P70S6K (T389) in MDA-MB-468 Cells
(§2) mTOR Kinase Cellular Assay
(§3) To measure functional activity of mTORC1 and mTORC2 in cells the phosphorylation of 4EBP1 (Thr37/46) and P70S6K (Thr389), and AKT1/2/3 (Ser473) was monitored using AlphaLisa SureFire Ultra Kits (Perkin Elmer). […] Incubations were terminated by removal of the assay buffer and addition of lysis buffer provided with the assay kit. Samples were processed according to the manufacturer's instructions. The Alpha signal from the respective phosphoproteins was measured in duplicate using a microplate reader (Envision, Perkin-Elmer or Spectramax M5, Molecular Devices). Inhibitor concentration response curves were analyzed using normalized IC50 regression curve fitting with control based normalization.

P-4E-BP1 (T37/46) = assay: Cell based AlphaLISA assay, inhibition of P-4E-BP1 (T37/46) (mTORC1 substrate phosphorylation) in MDA-MB-468 cells; settings: Homo sapiens, AlphaLISA, two to four hours at 37° C., read-out: pIC50 for Inhibition of mTORC1 and mTORC2 Substrate Phosphorylation, P-4E-BP1-(T37/46) (converted)
Experimental: as §1, §2, §3

P-P70S6K (T389) = assay: Cell based AlphaLISA assay, inhibition of P-P70S6K (T389) (mTORC1 substrate phosphorylation) in MDA-MB-468 cells; settings: Homo sapiens, 4 h, AlphaLISA, two to four hours at 37° C., read-out: pIC50 for Inhibition of mTORC1 and mTORC2 Substrate Phosphorylation, P-P70S6K-(T389) (converted)
Experimental: as §1, §2, §3

Compound	IC50 (P-Akt (S473); MDA-MB-468, 4 h) [nM]	IC50 (P-4E-BP1 (T37/46); MDA-MB-468, 4 h) [nM]	IC50 (P-P70S6K (T389)) [nM]	IC50 (P-Akt (S473); 4 h) [nM]	IC50 (P-4E-BP1 (T37/46); 4 h) [nM]
CO[C@H]1C[C@@H]2CC[C@@H](C)[C@@](O)(O2)C(=O)C(=O)N2CCCC[C@H]2C(=O)O[C@H]([C@H](C)C[C@@H]2CC[C@H](n3cc(-c4cccc(C(=O)NCCOCCOCCOCCC(=O)NCCOCCOCCOCCOCCC(=O)NCCCCn5nc(-c6ccc7oc(N)nc7c6)c6c(N)ncnc65)c4)nn3)[C@H](OC)C2)CC(=O)[C@H](C)/C=C(\C)[C@@H](O)[C@@H](OC)C(=O)[C@H](C)C[C@H](C)/C=C/C=C/C=C/1C [Example 139]	3.16 to 31.6	3.16 to 31.6	1 to 10	–	–
CO[C@H]1C[C@@H]2CC[C@@H](C)[C@@](O)(O2)C(=O)C(=O)N2CCCC[C@H]2C(=O)O[C@H]([C@H](C)C[C@@H]2CC[C@@H](OCCCCc3cn(CCOCCOCCOCCOCCOCCOCCOCCOCCC(=O)NCCCCn4nc(-c5cnc6[nH]ccc6c5)c5c(N)ncnc54)nn3)[C@H](OC)C2)CC(=O)[C@H](C)/C=C(\C)[C@@H](O)[C@@H](OC)C(=O)[C@H](C)C[C@H](C)/C=C/C=C/C=C/1C [Example 69]	–	–	< 1	3.16 to 31.6	< 3.16
CCO[C@@H]1C[C@@H]([C@H](C)C[C@@H]2CC[C@H](n3cc(CCCC(=O)NCCOCCOCCOCCC(=O)NCCOCCOCCOCCC(=O)NCCCCn4nc(-c5cc6cc(O)ccc6[nH]5)c5c(N)ncnc54)nn3)[C@H](OC)C2)OC(=O)[C@@H]2CCCCN2C(=O)C(=O)[C@]2(O)O[C@@H](CC[C@H]2C)C[C@H](OC)/C(C)=C/C=C/C=C/[C@@H](C)C[C@@H](C)C(=O)[C@H](OC)[C@H](O)/C(C)=C/[C@H]1C [Example 168]	> 1000	31.6 to 1000	10 to 1000	–	–
CO[C@H]1C[C@@H]2CC[C@@H](C)[C@@](O)(O2)C(=O)C(=O)N2CCCC[C@H]2C(=O)O[C@H]([C@H](C)C[C@@H]2CC[C@H](n3cc(COCCOCCOCCOCCC(=O)OCCOCCOCCOCCOCCC(=O)NCCCCn4nc(-c5ccc6oc(N)nc6c5)c5c(N)ncnc54)nn3)[C@H](OC)C2)CC(=O)C(C)/C=C(\C)[C@@H](O)[C@@H](OC)C(=O)[C@H](C)C[C@H](C)/C=C/C=C/C=C/1C (stereo in doubt) [Example 197]	31.6 to 1000	3.16 to 31.6	1 to 10	–	–
CCO[C@@H]1C[C@@H]([C@H](C)C[C@@H]2CC[C@@H](O)[C@H](OC)C2)OC(=O)[C@@H]2CCCCN2C(=O)C(=O)[C@]2(O)O[C@@H](CC[C@H]2C)C[C@H](OC)/C(C)=C/C=C/C=C/[C@@H](C)C[C@@H](C)C(=NOCc2cn(CCOCCOCCOCCOCCOCCOCCOCCOCCC(=O)NCCCCn3nc(-c4ccc5oc(N)nc5c4)c4c(N)ncnc43)nn2)[C@H](OC)[C@H](O)/C(C)=C/[C@H]1C [Example 64]	31.6 to 1000	3.16 to 31.6	< 1	–	–
CO[C@H]1C[C@@H]2CC[C@@H](C)[C@@](O)(O2)C(=O)C(=O)N2CCCC[C@H]2C(=O)O[C@H]([C@H](C)C[C@@H]2CC[C@H](n3cc(COC(=O)NCCOCCOCCOCCC(=O)NCCOCCOCCC(=O)NCCCCn4nc(-c5ccc6oc(N)nc6c5)c5c(N)ncnc54)nn3)[C@H](OC)C2)C/C(=N/OC(C)(C)C)[C@H](C)/C=C(\C)[C@@H](O)[C@@H](OC)C(=O)[C@H](C)C[C@H](C)/C=C/C=C/C=C/1C [Example 158]	> 1000	> 1000	> 1000	–	–
CO[C@H]1C[C@@H]2CC[C@@H](C)[C@@](O)(O2)C(=O)C(=O)N2CCCC[C@H]2C(=O)O[C@H]([C@H](C)C[C@@H]2CC[C@H](n3cc(CCCC(=O)NCCOCCOCCOCCOCCC(=O)NCCOCCOCCOCCOCCC(=O)NCCCCn4nc(-c5cc6cc(O)ccc6[nH]5)c5c(N)ncnc54)nn3)[C@H](OC)C2)CC(=O)[C@H](C)/C=C(\C)[C@@H](O)[C@@H](OC)C(=O)[C@H](C)C[C@H](C)/C=C/C=C/C=C/1C [Example 135]	31.6 to 1000	3.16 to 31.6	1 to 10	–	–
CO[C@H]1C[C@@H]2CC[C@@H](C)[C@@](O)(O2)C(=O)C(=O)N2CCCC[C@H]2C(=O)O[C@H]([C@H](C)C[C@@H]2CC[C@@H](OCCCCc3cn(CCOCCOCCOCCOCCOCCOCCOCCOCCOCCOCCOCCOCCOCCOCCOCCOCCOCCOCCOCCOCCOCCOCCOCCOCCC(=O)NCCCCn4nc(-c5ccc6oc(N)nc6c5)c5c(N)ncnc54)nn3)[C@H](OC)C2)CC(=O)[C@H](C)/C=C(\C)[C@@H](O)[C@@H](OC)C(=O)[C@H](C)C[C@H](C)/C=C/C=C/C=C/1C [Example 97]	3.16 to 31.6	3.16 to 31.6	1 to 10	–	–
CCO[C@@H]1C[C@@H]([C@H](C)C[C@@H]2CC[C@H](n3cc(CCCC(=O)NCCOCCOCCOCCC(=O)NCCOCCOCCOCCC(=O)NCCCCn4nc(-c5ccc6oc(N)nc6c5)c5c(N)ncnc54)nn3)[C@H](OC)C2)OC(=O)[C@@H]2CCCCN2C(=O)C(=O)[C@]2(O)O[C@@H](CC[C@H]2C)C[C@H](OC)/C(C)=C/C=C/C=C/[C@@H](C)C[C@@H](C)C(=O)[C@H](OC)[C@H](O)/C(C)=C/[C@H]1C [Example 167]	31.6 to 1000	31.6 to 1000	1 to 10	–	–
COc1cccc2cc(-c3nc([C@H]4CC[C@H](C(=O)NCCOCCOCCNC(=O)CCOCCOCCOCCOCCn5cc(CCCCO[C@@H]6CC[C@@H](C[C@@H](C)[C@@H]7C[C@@H](OC)[C@H](C)/C=C(\C)[C@@H](O)[C@@H](OC)C(=O)[C@H](C)C[C@H](C)/C=C/C=C/C=C(\C)[C@@H](OC)C[C@@H]8CC[C@@H](C)[C@@](O)(O8)C(=O)C(=O)N8CCCC[C@H]8C(=O)O7)C[C@H]6OC)nn5)CC4)n4ncnc(N)c34)[nH]c12 [Example 188]	31.6 to 1000	< 3.16	< 1	–	–
CO[C@H]1C[C@@H]2CC[C@@H](C)[C@@](O)(O2)C(=O)C(=O)N2CCCC[C@H]2C(=O)O[C@H]([C@H](C)C[C@@H]2CC[C@@H](OCc3cccc(-c4cnc(N5CCN(S(=O)(=O)CCc6cn(CCOCCOCCC(=O)NCCCCn7nc(-c8ccc9oc(N)nc9c8)c8c(N)ncnc87)nn6)CC5)nc4)c3)[C@H](OC)C2)CC(=O)[C@H](C)/C=C(\C)[C@@H](O)[C@@H](OC)C(=O)[C@H](C)C[C@H](C)/C=C/C=C/C=C/1C [Example 28]	3.16 to 31.6	< 3.16	< 1	–	–
CO[C@H]1C[C@@H]2CC[C@@H](C)[C@@](O)(O2)C(=O)C(=O)N2CCCC[C@H]2C(=O)O[C@H]([C@H](C)C[C@@H]2CC[C@@H](OCc3cccc(-c4cnc(N5CCN(C(=O)CCc6cn(CCOCCOCCC(=O)NCCCCn7nc(-c8ccc9oc(N)nc9c8)c8c(N)ncnc87)nn6)CC5)nc4)c3)[C@H](OC)C2)CC(=O)[C@H](C)/C=C(\C)[C@@H](O)[C@@H](OC)C(=O)[C@H](C)C[C@H](C)/C=C/C=C/C=C/1C [Example 47]	3.16 to 31.6	< 3.16	< 1	–	–
CO[C@H]1C[C@@H]2CC[C@@H](C)[C@@](O)(O2)C(=O)C(=O)N2CCCC[C@H]2C(=O)O[C@H]([C@H](C)C[C@@H]2CC[C@H](n3cc(CCCC(=O)NCCOCCOCCOCCC(=O)NCCOCCOCCC(=O)NCCCCn4nc(-c5ccc6oc(N)nc6c5)c5c(N)ncnc54)nn3)[C@H](OC)C2)C/C(=N/OCc2ccccc2)[C@H](C)/C=C(\C)[C@@H](O)[C@@H](OC)C(=O)[C@H](C)C[C@H](C)/C=C/C=C/C=C/1C [Example 173]	> 1000	> 1000	10 to 1000	–	–
CO[C@H]1C[C@@H]2CC[C@@H](C)[C@@](O)(O2)C(=O)C(=O)N2CCCC[C@H]2C(=O)O[C@H]([C@H](C)C[C@@H]2CC[C@H](n3nncc3-c3cccc(-c4cnc(N5CCN(Cc6cn(CCOCCOCCOCCOCCOCCC(=O)NCCCCn7nc(-c8ccc9oc(N)nc9c8)c8c(N)ncnc87)nn6)C(CO)C5)nc4)c3)[C@H](OC)C2)CC(=O)[C@H](C)/C=C(\C)[C@@H](O)[C@@H](OC)C(=O)[C@H](C)C[C@H](C)/C=C/C=C/C=C/1C (stereo partly drawn) [Example 32]	3.16 to 31.6	3.16 to 31.6	1 to 10	–	–
CO[C@H]1C[C@@H]2CC[C@@H](C)[C@@](O)(O2)C(=O)C(=O)N2CCCC[C@H]2C(=O)O[C@H]([C@H](C)C[C@@H]2CC[C@@H](OCCCCc3cn(CCOCCOCCOCCOCCNC(=O)CCC(=O)NCCCCn4nc(-c5ccc6oc(N)nc6c5)c5c(N)ncnc54)nn3)[C@H](OC)C2)CC(=O)[C@H](C)/C=C(\C)[C@@H](O)[C@@H](OC)C(=O)[C@H](C)C[C@H](C)/C=C/C=C/C=C/1C [Example 99]	3.16 to 31.6	3.16 to 31.6	< 1	–	–
